How the values were obtained:
[1] = First in human study, plasma pharmacokinetics; assay type: in vivo
Excerpt: Accumulation of compound I at steady-state was minor (˜1.7-fold) following administration of 0.15%, 1.5% or 2.5% suspension 4 times daily and also minor (˜1.3-fold) following 2.5% 8 times daily for 7 days.

[2] = test system: postoperative ocular pain in patients undergoing photorefractive keratectomy (PRK) surgery; experiment: PRK clinical study, VAS pain severity; assay type: in vivo, human
Procedure: The study was a proof of concept, double-masked, randomized, vehicle-controlled study of compound I administered as eye drops in addition to standard of care treatment in patients after PRK surgery. PRK surgery was performed as an outpatient procedure under topical anesthesia with removal of the corneal epithelium to expose the stroma for the laser ablation. Compound I dosing was as single eye drop of 2.5% (0.925 mg/drop), administered four times daily (every six hours) in one eye from immediate post-op (time 0) to last dose at 72 hours.
The study consisted of 2 treatment periods using a crossover design. Patients underwent PRK surgery on 2 separate occasions (periods), one eye at a time. Patients were randomized to receive either compound 1 or vehicle following procedure 1 and the alternate following procedure 2.
Patient subjective experience of pain was recorded using VAS, a numeric assessment of pain between 0 and 100, with 0 representing no pain, and 100 representing worst imaginable pain. […] Since it was important clinically to both decrease the maximum pain as well as the overall pain that the patient experiences during the immediate postoperative period, the two periods of 6 hours and up to 12 hours postoperatively, were evaluated as primary endpoints. All evaluable VAS data was collected using an ePRO, which was an electronic device (cell phone with software application), on which patients marked their pain levels at the appropriate time points.
Rescue oral analgesics: It is not ethical to refuse pain control medication to patients postoperatively as part of a clinical trial. […] Because the use of oral rescue medication may be a potential confounder of the pain VAS evaluation, three approaches were used when analyzing pain VAS scores to account for the influence of pain meds (assuming 4 hours of rescue medication effect): (1) any recorded VAS score within 4 hours after use of rescue medication was considered missing; (2) all the recorded VAS scores was used; and (3) any recorded VAS scores within 4 hours after rescue medication use was imputed by the record taken prior to the rescue medication.
The mean VAS pain severity scores at 6 hours and 0-12 hours post-operatively are presented in Table 22 and Table 23, respectively, and shown in FIG. 3. The primary analysis was performed using the Primary PD analysis set.

Structure (SMILES): CC(C)c1nc2cc(O)ccc2c(=O)n1-c1ccc(C#N)cc1 [Compound I, 4-(7-hydroxy-2-isopropyl-4-oxo-4H-quinazolin-3-yl)-benzonitrile]
- Accumulation at steady-state ([1]; 0.15%, 1.5% or 2.5% suspension 4 times daily): ~1.7 fold
- Accumulation at steady-state ([1]; 2.5%, 8 times daily for 7 days): ~1.3 fold
- increase in systemic exposure with dose ([1]; increase in dose from 0.15% to 2.5%): less than dose-proportional increase
- VAS pain severity score, % Diff ([2]; 0-12 hours post-operatively): −22%
- VAS pain severity score, Diff (compound I-Vehicle) ([2]; 0-12 hours post-operatively): −8.56
- VAS pain severity score, model estimated mean ([2]; 0-12 hours post-operatively, 2.5% four times daily, Primary PD analysis set): 30.90
- VAS pain severity versus Vehicle during the first 18 hours after surgery ([2]; 6 out of the 7 time points, p-value threshold 0.10): statistically significantly lower VAS pain severity scores
- VAS pain severity score, % Diff ([2]; 6 hours post-operatively): −25%
- VAS pain severity score, Diff (compound I-Vehicle) ([2]; 6 hours post-operatively): −11.1
- VAS pain severity score, model estimated mean (SE) ([2]; 6 hours post-operatively, 2.5% four times daily, Primary PD analysis set): 34.63 (4.05)
- mean change in VAS score after instillation of eye drop ([2]; 6.5 hours versus 6 hours post-operative): −3.1
- mean change in VAS score after instillation of eye drop ([2]; 18.5 hours versus 18 hours post-operative): 2.8
- mean change in VAS score after instillation of eye drop ([2]; 24.5 hours versus 24 hours post-operative): 1.3

Reference: patent publication US20200390767A1, “Formulations of 4-(7-Hydroxy-2-isopropyl-4-oxo-4H-quinazolin-3-yl)-benzonitrile” (NOVARTIS AG, priority 2019, published 2020)
